According to patent US9776987B2, “Amide derivatives for GPR119 agonist” (CHONG KUN DANG PHARMACEUTICAL CORP., priority 2013, dated 2017):
Values after ≈ are worked out from the molar mass of the structure shown. Like-named read-outs stand apart in the source and are kept apart here.

What was measured:
human GPR119 receptor = molecular target: T1, human GPR119 receptor (Homo sapiens, UniProt Q8TDV5); test: Activity test for human GPR119 receptor (GeneBLAzer T-Rex GPR 119 CHO-K1 DA cells); assay type: cell-based; conditions: for EC50: human GPR119 receptor expressing CHO-K1 cells, 5 hours treatment, read-out: hGPR119 EC50; for activity for human GPR119 receptor (in words): judgement on the EC50 values of Table 11
T1 construct: host or cells: GeneBLAzer T-Rex GPR 119 CHO-K1 DA cells (CHO-K1)
T1 sequence (Q8TDV5 1-335): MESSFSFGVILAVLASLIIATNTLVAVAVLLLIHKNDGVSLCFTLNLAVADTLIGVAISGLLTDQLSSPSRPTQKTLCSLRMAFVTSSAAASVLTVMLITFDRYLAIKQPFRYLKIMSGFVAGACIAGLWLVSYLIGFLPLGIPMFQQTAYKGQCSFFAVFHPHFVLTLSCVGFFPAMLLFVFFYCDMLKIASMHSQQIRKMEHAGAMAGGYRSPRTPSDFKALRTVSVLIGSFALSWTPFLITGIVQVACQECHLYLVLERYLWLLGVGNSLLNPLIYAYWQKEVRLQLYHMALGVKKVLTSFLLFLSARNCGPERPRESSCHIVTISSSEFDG
In short: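 Compounds at 0.1, 1 and 10 μM, in duplicate, on GeneBLAzer T-Rex GPR119 CHO-K1 DA cells for 5 h, then 2 h with colour-development reagent before fluorescence reading. Test-to-vehicle-control ratio converted to EC50; mean±SD.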

Male C57/6J Jms mice = test: Glucose tolerance test in normal mouse; assay type: in vivo
Experimental: 1. Method of Glucose Tolerance Test
Male C57/6J Jms mice of 6-7 weeks of age were fasted for 16 hours before the start of glucose tolerance test. […]
Before compound administration, that is, at 0 hour, whole blood glucose level was determined using a Glucometer (ACCU-CHEK, Roche). At 30 minutes after compound administration, whole blood glucose level was determined once again, and 20% glucose (2 g/kg/10 mL) was administered orally. Whole blood glucose level was determined at 20, 40, 60, 80, and 120 minutes after 20% glucose administration. Whole blood glucose level vs. Time was graphicalized. Area under the curve (AUC) of whole blood glucose level was obtained using GraphPad Prism 4.0. The effect of glucose tolerance was adjudged with the corrected area under the curve (cAUC), on which the base value of glucose area under the curve was excluded.

[1] = Solubility test of GPR 119 agonist compounds (Nephelostar); assay type: physicochemical; conditions: aqueous with cosolvent or surfactant or cyclodextrin, kinetic from dmso stock
Experimental: 1. Method of Solubility Test
Each test compounds were dissolved in 5% DMSO aqueous solution as a solvent at several concentrations. When a laser was irradiated to the solution, the particles, which are not dissolved in the solvent, scatter the light. The level of the scattered light is dependent to the number of the particles, so the solubility of the test compound in the solution can be determined using the relationship. As the test equipment, Nephelostar was used.

[2] = system: Glucagon-Like Peptide-1 (GLP-1) secretion; test: Secretion capacity test of glucagon-like peptide-1 (GLP-1); assay type: in vivo, mouse; conditions: normal mice, oral, AUC of plasma GLP-1 level, vehicle (water) 100%
Experimental: 3. Secretion Capacity Test of Glucagon-Like Peptide-1 (GLP-1)
Male C57/6J Jms mice of 6-7 weeks of age were fasted for 16 hours before the start of the test of secretion capacity test of GLP-1. The experimental animal groups consist of: a vehicle group (100% DI water); and test groups administered with each compounds (10 mg/kg). Blood samples were taken from the orbital vein of the test animals. Plasma GLP-1 level was determined using a GLP-1 ELISA kit (Total GLP-1 ELISA, ALPCO). With the base of 30 minutes before the compound administration, each blood samples were taken at 30, 60, 120 and 210 minutes after the compound administration. 30% Glucose solution (3 g/kg/10 mL) was administered orally at 5 minutes before each blood-collecting. From the collected blood, only plasma was taken using a centrifuge (12000 rpm, 15 minutes), and stored at −80° C. before analysis. Plasma GLP-1 level vs. Time was graphicalized. Area under the curve (AUC) of plasma GLP-1 level was obtained using GraphPad Prism 4.0. All the results were expressed as mean±SD, and each test groups and the control group were compared using one-way ANOVA test (Dunnett's test, *p<0.05, **p<0.01, ***p<0.001) to adjudge the effects of each test groups.

[3] = 10 mg/kg, whole blood glucose AUC after oral glucose 2 g/kg, 10 mg/kg
[4] = pH 2, 5% DMSO aqueous solution, read-out: Solubility pH 2
[5] = pH 4, 5% DMSO aqueous solution, read-out: Solubility pH 4
[6] = pH 6, 5% DMSO aqueous solution, read-out: Solubility pH 6
[7] = pH 8, 5% DMSO aqueous solution, read-out: Solubility pH 8

SMILES | EC50 (human GPR119 receptor) | activity for human GPR119 receptor (in words) (human GPR119 receptor) | solubility [1, 4] | solubility [1, 5] | solubility [1, 6] | solubility [1, 7] | Decrease % of AUC at 10 mg/kg (Male C57/6J Jms mice; [3]) | Decrease % of AUC at 2.5 mg/kg (Male C57/6J Jms mice; 2.5 mg/kg) | Decrease % of AUC at 5 mg/kg (Male C57/6J Jms mice; 5 mg/kg) | GLP-1 secretion (%) at 10 mg/kg of dose [2] | Decrease % of AUC at 10 mg/kg (Male C57/6J Jms mice; 10 mg/kg, whole blood glucose AUC after oral glucose 2 g/kg)
NC(=O)[C@@H]1C[C@@H](O)CN1C(=O)c1ccc(-c2ccc(OCC3CCN(CC4(C(F)(F)F)CCC4)CC3)cc2)cc1 [Compound 1199, (2S,4R)-4-hydroxy-1-(4′-((1-((1-(trifluoromethyl)cyclobutyl)methyl)piperidin-4-yl)methoxy)biphenylcarbonyl)pyrrolidin-2-carboxamide] | 12 nM |  |  |  |  |  | 31% |  |  |  | 
CC(C)(F)CN1CCC(COc2ccc(-c3ccc(C(=O)N4CCC[C@@]4(C)C(N)=O)c(F)c3)nc2)CC1 [Compound 1207, (S)-1-(2-fluoro-4-(5-((1-(2-fluoro-2-methylpropyl)piperidin-4-yl)methoxy)pyridin-2-yl)benzoyl)-2-methylpyrrolidin-2-carboxamide] | 0.07 nM | excellent activity | > 257 µg/mL | > 257 µg/mL | > 257 µg/mL | > 257 µg/mL |  | 31.3% | 45.1% | 223% | 
CCc1cnc(N2CCC(c3nc(COc4ccc(-n5cnnn5)cc4)cs3)CC2)nc1 [MBX-2982, reference compound] |  |  | > 208 µg/mL | 133 µg/mL (≈ 297 µM) | 61 µg/mL (≈ 136 µM) | 39 µg/mL (≈ 86.9 µM) |  | 9.5% | 18.5% | 114% | 20~30%

Now from value to compound, other results behind:

EC50 (human GPR119 receptor) | activity for human GPR119 receptor (in words) (human GPR119 receptor) | solubility [1, 4] | solubility [1, 5] | solubility [1, 6] | solubility [1, 7] | SMILES | Decrease % of AUC at 10 mg/kg (Male C57/6J Jms mice; [3]) | Decrease % of AUC at 2.5 mg/kg (Male C57/6J Jms mice; 2.5 mg/kg) | Decrease % of AUC at 5 mg/kg (Male C57/6J Jms mice; 5 mg/kg) | GLP-1 secretion (%) at 10 mg/kg of dose [2] | Decrease % of AUC at 10 mg/kg (Male C57/6J Jms mice; 10 mg/kg, whole blood glucose AUC after oral glucose 2 g/kg)
3 nM | excellent activity |  |  |  |  | CC(C)(CN1CCC(COc2ccc(-c3ccc(C(=O)N4C[C@H](O)C[C@H]4C(N)=O)c(F)c3)cn2)CC1)C(F)(F)F [Compound 1208, (2S,4R)-1-(2-fluoro-4-(6-((1-(3,3,3-trifluoro-2,2-dimethylpropyl)piperidin-4-yl)methoxy)pyridin-3-yl)benzoyl)-4-hydroxypyrrolidin-2-carboxamide] | 38% |  |  |  | 
13 nM | excellent activity | > 272 µg/mL | > 272 µg/mL | > 272 µg/mL | 133 µg/mL (≈ 244 µM) | CCC(F)(CC)CN1CCC(COc2ccc(-c3ccc(C(=O)N4C[C@H](O)C[C@H]4C(N)=O)c(F)c3)nc2)CC1 [Compound 1279, (2S,4R)-1-(4-(5-((1-(2-ethyl-2-fluorobutyl)piperidin-4-yl)methoxy)pyridin-2-yl)-2-fluorobenzoyl)-4-hydroxypyrrolidin-2-carboxamide] |  | 20.8% | 30.2% | 324% | 
0.1 nM |  |  |  |  |  | CC(C)(CN1CCC(COc2ccc(-c3ccc(C(=O)N4C[C@H](O)C[C@H]4C(N)=O)c(F)c3)c(F)c2)CC1)C(F)(F)F [Compound 1240, (2S,4R)-1-(2′,3-difluoro-4′-((1-(3,3,3-trifluoro-2,2-dimethylpropyl)piperidin-4-yl)methoxy)biphenylcarbonyl)-4-hydroxypyrrolidin-2-carboxamide] | 35% |  |  |  | 
13 nM | excellent activity | > 279 µg/mL | > 279 µg/mL | > 279 µg/mL | 166 µg/mL (≈ 297 µM) | CCC(F)(CC)CN1CCC(COc2ccc(-c3ccc(C(=O)N4C[C@H](O)C[C@@]4(C)C(N)=O)c(F)c3)nc2)CC1 [Compound 1291, (2S,4R)-1-(4-(5-((1-(2-ethyl-2-fluorobutyl)piperidin-4-yl)methoxy)pyridin-2-yl)-2-fluorobenzoyl)-4-hydroxy-2-methylpyrrolidin-2-carboxamide] |  | 15.7% | 38.0% | 347% | 
